According to patent US20250188040A1, “PHARMACEUTICAL COMPOSITIONS COMPRISING WRN HELICASE INHIBITORS” (Vividion Therapeutics, Inc., priority 2022, published 2025):
Read-outs that look alike come from different tables or passages of the source.

Legend:
WRN C727 = biological target: T1, WRN C727 (Homo sapiens, UniProt Q14191); assay: Target engagement, in vitro (lysate), OCI-AML2; assay type: binding; details: read-out: OCI-AML2 WRN C727 TE50 in vitro (lysate)
T1 construct: endogenous in cells; host or cells: OCI-AML2
T1 sequence (Q14191 whole entry): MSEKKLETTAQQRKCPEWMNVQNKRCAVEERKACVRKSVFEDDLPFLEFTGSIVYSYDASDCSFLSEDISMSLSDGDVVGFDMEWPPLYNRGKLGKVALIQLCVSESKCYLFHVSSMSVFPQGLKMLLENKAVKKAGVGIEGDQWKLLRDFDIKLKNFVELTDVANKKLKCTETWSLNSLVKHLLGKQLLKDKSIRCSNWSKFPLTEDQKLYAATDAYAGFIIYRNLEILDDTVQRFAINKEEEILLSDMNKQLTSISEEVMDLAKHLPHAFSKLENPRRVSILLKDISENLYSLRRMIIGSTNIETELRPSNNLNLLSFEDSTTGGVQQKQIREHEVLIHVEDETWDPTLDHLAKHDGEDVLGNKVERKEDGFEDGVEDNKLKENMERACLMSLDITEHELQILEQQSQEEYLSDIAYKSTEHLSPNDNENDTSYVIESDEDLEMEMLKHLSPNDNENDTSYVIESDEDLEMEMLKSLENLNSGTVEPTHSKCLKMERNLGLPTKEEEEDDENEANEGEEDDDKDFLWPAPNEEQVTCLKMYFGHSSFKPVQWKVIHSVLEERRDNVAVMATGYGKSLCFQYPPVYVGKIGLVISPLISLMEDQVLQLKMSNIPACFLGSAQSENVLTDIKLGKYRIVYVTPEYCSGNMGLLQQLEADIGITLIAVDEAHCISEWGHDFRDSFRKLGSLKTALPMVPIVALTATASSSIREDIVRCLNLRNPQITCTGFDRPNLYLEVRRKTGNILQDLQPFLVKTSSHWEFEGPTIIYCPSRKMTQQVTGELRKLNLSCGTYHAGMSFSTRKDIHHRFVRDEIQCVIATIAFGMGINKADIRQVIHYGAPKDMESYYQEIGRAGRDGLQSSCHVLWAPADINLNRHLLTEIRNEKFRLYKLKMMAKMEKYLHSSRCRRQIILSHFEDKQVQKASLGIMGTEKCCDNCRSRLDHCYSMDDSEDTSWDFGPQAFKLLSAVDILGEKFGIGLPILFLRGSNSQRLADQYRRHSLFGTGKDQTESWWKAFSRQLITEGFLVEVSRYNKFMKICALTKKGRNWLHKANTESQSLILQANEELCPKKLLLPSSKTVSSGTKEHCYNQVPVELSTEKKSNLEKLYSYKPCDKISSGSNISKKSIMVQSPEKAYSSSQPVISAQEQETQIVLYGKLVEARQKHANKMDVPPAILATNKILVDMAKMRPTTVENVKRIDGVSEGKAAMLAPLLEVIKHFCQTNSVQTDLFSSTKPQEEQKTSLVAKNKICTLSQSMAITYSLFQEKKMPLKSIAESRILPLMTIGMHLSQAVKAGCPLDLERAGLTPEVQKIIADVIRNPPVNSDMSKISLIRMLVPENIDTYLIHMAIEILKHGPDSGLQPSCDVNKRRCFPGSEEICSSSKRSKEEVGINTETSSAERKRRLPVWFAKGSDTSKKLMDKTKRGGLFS
Protocol: Cells or cell lysates were treated with a dose response of compound followed by probe treatment, which labels solvent exposed cysteines. Proteins were enzymatically digested with trypsin and probe-labelled peptides were enriched with streptavidin. Isolated peptides were then separated using reversed-phase liquid chromatography on a C18 column (Dionex Ultimated 3000 nano-LC, Thermo). Peptides were analyzed by parallel reaction monitoring mass spectrometry (Exploris 120, Thermo).
Target engagement (%) is calculated relative to DMSO treated control samples.

[1] = biological target: hWRN(519-1227)_C-H3CV-GFP-10His (Homo sapiens, UniProt Q14191); assay: Helicase Assay for WRN Inhibition (ATP-dependent, fluorescence based)
Chain of hWRN(519-1227)_C-H3CV-GFP-10His (Q14191 519-1227): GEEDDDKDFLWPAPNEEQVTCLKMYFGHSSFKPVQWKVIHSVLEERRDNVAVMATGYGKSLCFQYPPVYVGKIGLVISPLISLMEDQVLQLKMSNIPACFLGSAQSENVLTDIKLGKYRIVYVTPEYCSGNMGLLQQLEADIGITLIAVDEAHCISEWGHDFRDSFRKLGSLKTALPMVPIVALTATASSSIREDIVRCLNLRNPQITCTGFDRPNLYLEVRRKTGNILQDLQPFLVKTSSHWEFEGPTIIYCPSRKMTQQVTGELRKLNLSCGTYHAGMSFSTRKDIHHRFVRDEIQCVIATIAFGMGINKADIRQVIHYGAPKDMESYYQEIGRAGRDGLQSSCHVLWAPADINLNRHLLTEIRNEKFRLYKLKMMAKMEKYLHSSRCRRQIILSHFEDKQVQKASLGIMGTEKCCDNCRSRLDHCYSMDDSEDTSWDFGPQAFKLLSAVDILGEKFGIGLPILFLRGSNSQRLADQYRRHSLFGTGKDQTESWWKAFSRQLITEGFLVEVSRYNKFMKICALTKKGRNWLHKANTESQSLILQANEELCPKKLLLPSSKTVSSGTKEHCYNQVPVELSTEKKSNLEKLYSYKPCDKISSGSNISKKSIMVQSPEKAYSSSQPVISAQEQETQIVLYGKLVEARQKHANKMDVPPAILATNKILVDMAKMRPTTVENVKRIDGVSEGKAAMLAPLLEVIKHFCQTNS
Protocol: Effects of compounds on WRN helicase activity were assessed with the Helicase Assay for WRN Inhibition. This is an ATP-dependent (inclusion of ATP is important and is required for this assay) fluorescence based assay using recombinant WRN and a fluorogenic DNA substrate.
WRN activity was normalized to signal from wells without WRN protein (background, 0% activity) and wells with protein treated only with DMSO (positive control, 10000 activity). For each compound the potency of inhibition (IC50) was determiined using Graphpad Prism.

[2] = WRN Helicase IC50, 30 min preincubation with ATP, 30 min reaction

SMILES | IC50 (WRN C727) [µM] | IC50 [1, 2] [µM] | IC50 ([1]; read-out: WRN Helicase IC50, 30 min preincubation with ATP, 30 min reaction) [µM] | IC50 [1] [µM]
C[C@@H](/C=C/S(C)(=O)=O)NC(=O)c1cnc(C2CCCC2)nc1O[C@H]1CCCOC1 [Example 134, 2-cyclopentyl-N—((S,E)-4-(methylsulfonyl)but-3-en-2-yl)-4-(((S)-tetrahydro-2H-pyran-3-yl)oxy)pyrimidine-5-carboxamide] | > 100 | 53 |  | 
C[C@@H](/C=C/S(C)(=O)=O)NC(=O)c1cnc(C2CCCC2)nc1Oc1ccc(O)cc1 [Example 135, (S,E)-2-cyclopentyl-4-(4-hydroxyphenoxy)-N-(4-(methylsulfonyl)but-3-en-2-yl)pyrimidine-5-carboxamide] | 75 | 70 |  | 
C[C@@H](/C=C/S(C)(=O)=O)NC(=O)c1cnc(C2CCCC2)nc1Oc1cccc(N)c1 [Example 138, (S,E)-4-(3-aminophenoxy)-2-cyclopentyl-N-(4-(methylsulfonyl)but-3-en-2-yl)pyrimidine-5-carboxamide] | > 100 | 19 |  | 
C[C@@H](/C=C/S(C)(=O)=O)NC(=O)c1cnc(C2CC2)nc1OC1CC2(CCC2)C1 [Example 141, (S,E)-2-cyclopropyl-N-(4-(methylsulfonyl)but-3-en-2-yl)-4-(spiro[3.3]heptan-2-yloxy)pyrimidine-5-carboxamide] | > 100 | 118 |  | 
C[C@@H](/C=C/S(C)(=O)=O)NC(=O)c1cnc(C2CC2)nc1OC1CC2(CC2)C1 [Example 142, (S,E)-2-cyclopropyl-N-(4-(methylsulfonyl)but-3-en-2-yl)-4-(spiro[2.3]hexan-5-yloxy)pyrimidine-5-carboxamide] | 50 | 20 |  | 
CC(C)(C)c1ncc(C(=O)NC/C=C/S(C)(=O)=O)c(O[C@H]2C[C@@H]3C[C@@H]3C2)n1 [Example 145, 4-(((1R,3s,5S)-bicyclo[3.1.0]hexan-3-yl)oxy)-2-(tert-butyl)-N—((E)-3-(methylsulfonyl)allyl)pyrimidine-5-carboxamide] | >100 |  | 59 | 
C[C@@H](/C=C/S(C)(=O)=O)NC(=O)c1cnc(C2CC2)nc1OCC1CC1 [Example 150, (S,E)-2-cyclopropyl-4-(cyclopropylmethoxy)-N-(4-(methylsulfonyl)but-3-en-2-yl)pyrimidine-5-carboxamide] | > 100 | 43 |  | 
C[C@@H](/C=C/S(C)(=O)=O)NC(=O)c1cnc(C2CC2)nc1O[C@H]1C[C@H](Cl)C1 [Example 151, 4-((1r,3S)-3-chlorocyclobutoxy)-2-cyclopropyl-N—((S,E)-4-(methylsulfonyl)but-3-en-2-yl)pyrimidine-5-carboxamide] | > 100 | 59 |  | 
C[C@@H](/C=C/S(C)(=O)=O)NC(=O)c1cnc(C(C)(C)C)nc1OC1CCC(F)(F)CC1 [Example 155, (S,E)-2-(tert-butyl)-4-((4,4-difluorocyclohexyl)oxy)-N-(4-(methylsulfonyl)but-3-en-2-yl)pyrimidine-5-carboxamide] | 20 | 15 |  | 
C[C@@H](/C=C/S(C)(=O)=O)NC(=O)c1cnc(C(C)(C)C)nc1OC1CC(F)(F)C1 [Example 156, (S,E)-2-(tert-butyl)-4-(3,3-difluorocyclobutoxy)-N-(4-(methylsulfonyl)but-3-en-2-yl)pyrimidine-5-carboxamide] | 40 | 15 |  | 
C[C@@H](/C=C/S(C)(=O)=O)NC(=O)c1cnc(C(C)(C)C)nc1OC1(C#N)CCCC1 [Example 161, (S,E)-2-(tert-butyl)-4-((1-cyanocyclopentyl)oxy)-N-(4-(methylsulfonyl)but-3-en-2-yl)pyrimidine-5-carboxamide] | > 100 | 154 |  | 
Cc1nc(C2CCCC2)nc(Oc2ccccc2)c1C(=O)N[C@@H](C)/C=C/S(C)(=O)=O [Example 162, (S,E)-2-cyclopentyl-4-methyl-N-(4-(methylsulfonyl)but-3-en-2-yl)-6-phenoxypyrimidine-5-carboxamide] | > 100 | 128 |  | 
C[C@@H](/C=C/S(C)(=O)=O)NC(=O)c1cnc(N2CC3(CCC3)C2)nc1Oc1ccccc1 [Example 170, (S,E)-N-(4-(methylsulfonyl)but-3-en-2-yl)-4-phenoxy-2-(2-azaspiro[3.3]heptan-2-yl)pyrimidine-5-carboxamide] | > 100 | 137 |  | 
C[C@@H](/C=C/S(C)(=O)=O)NC(=O)c1cnc(N2CCC(F)(F)C2)nc1Oc1ccccc1 [Example 173, (S,E)-2-(3,3-difluoropyrrolidin-1-yl)-N-(4-(methylsulfonyl)but-3-en-2-yl)-4-phenoxypyrimidine-5-carboxamide] | > 100 | 48 |  | 
CS(=O)(=O)/C=C/[C@@H](NC(=O)c1cnc(N2CC(F)(F)C2)nc1Oc1ccccc1)C1CC1 [Example 183, (S,E)-N-(1-cyclopropyl-3-(methylsulfonyl)allyl)-2-(3,3-difluoroazetidin-1-yl)-4-phenoxypyrimidine-5-carboxamide] | 64.4 | 2.9 |  | 
CN(C/C=C/S(C)(=O)=O)C(=O)c1cnc(C2CCCC2)nc1Oc1ccccc1 [Example 187, (E)-2-cyclopentyl-N-methyl-N-(3-(methylsulfonyl)allyl)-4-phenoxypyrimidine-5-carboxamide] | > 100 | 52 |  | 
C[C@@H](/C=C/S(C)(=O)=O)NC(=O)c1cnc(C2CC2)c(F)c1Oc1ccccc1 [Example 205, (S,E)-6-cyclopropyl-5-fluoro-N-(4-(methylsulfonyl)but-3-en-2-yl)-4-phenoxynicotinamide] | > 100 | 20 |  | 
C[C@@H](/C=C/S(C)(=O)=O)NC(=O)c1ncc(C2=CCCC2)nc1Oc1ccccc1 [Example 207, (S,E)-5-(cyclopent-1-en-1-yl)-N-(4-(methylsulfonyl)but-3-en-2-yl)-3-phenoxypyrazine-2-carboxamide] | > 100 | 52 |  | 
CS(=O)(=O)/C=C/CNC(=O)c1cnc(-c2ccn[nH]2)nc1Oc1ccccc1 [Example 209, (E)-N-(3-(methylsulfonyl)allyl)-4-phenoxy-2-(1H-pyrazol-5-yl)pyrimidine-5-carboxamide] | > 100 | 18 |  | 
C[C@@H](/C=C/S(C)(=O)=O)NC(=O)c1cnc(C2=CCCOC2)nc1Oc1ccccc1 [Example 211, (S,E)-2-(5,6-dihydro-2H-pyran-3-yl)-N-(4-(methylsulfonyl)but-3-en-2-yl)-4-phenoxypyrimidine-5-carboxamide] | > 100 | 51 |  | 
C[C@@H](/C=C/S(C)(=O)=O)NC(=O)c1cnc(C2CCCOC2)nc1Oc1ccccc1 (stereo partly drawn) [Example 212, N—((S,E)-4-(methylsulfonyl)but-3-en-2-yl)-4-phenoxy-2-(tetrahydro-2H-pyran-3-yl)pyrimidine-5-carboxamide] | > 100 | 31 |  | 
CS(=O)(=O)/C=C/[C@@H](NC(=O)c1cc2c(nc1Oc1ccccc1)C(F)(F)CC2)C1CC1 [Example 237, (S,E)-N-(1-cyclopropyl-3-(methylsulfonyl)allyl)-7,7-difluoro-2-phenoxy-6,7-dihydro-5H-cyclopenta[b]pyridine-3-carboxamide] | 0.5 | 17 |  | 
C[C@@H](/C=C/S(C)(=O)=O)NC(=O)c1cnc(C2CCOCC2)nc1Oc1ccccc1 [Example 238, (S,E)-N-(4-(methylsulfonyl)but-3-en-2-yl)-4-phenoxy-2-(tetrahydro-2H-pyran-4-yl)pyrimidine-5-carboxamide] | > 100 | 53 |  | 
C[C@@H](/C=C/S(C)(=O)=O)NC(=O)c1cnc(C2CCCC2)nc1C1CCCCC1 [Example 239, (S,E)-4-cyclohexyl-2-cyclopentyl-N-(4-(methylsulfonyl)but-3-en-2-yl)pyrimidine-5-carboxamide] | > 100 | 148 |  | 
C[C@@H](/C=C/S(C)(=O)=O)NC(=O)c1cnc(CC2CCCCC2)nc1Oc1ccccc1 [Example 240, (S,E)-2-(cyclohexylmethyl)-N-(4-(methylsulfonyl)but-3-en-2-yl)-4-phenoxypyrimidine-5-carboxamide] | > 100 | 67 |  | 
C[C@@H](/C=C/S(C)(=O)=O)NC(=O)c1cc2c(nc1Oc1ccccc1)CCC2 [Example 243, (S,E)-N-(4-(methylsulfonyl)but-3-en-2-yl)-2-phenoxy-6,7-dihydro-5H-cyclopenta[b]pyridine-3-carboxamide] | > 100 | 43 |  | 
COc1ncc(C(=O)N[C@H](/C=C/S(C)(=O)=O)C2CC2)c(Oc2ccccc2)n1 [Example 244, (S,E)-N-(1-cyclopropyl-3-(methylsulfonyl)allyl)-2-methoxy-4-phenoxypyrimidine-5-carboxamide] | 0.49 | 20 |  | 
CC(=O)Nc1nc(C2CCCC2)nc(Oc2ccccc2)c1C(=O)N[C@@H](C)/C=C/S(C)(=O)=O [Example 256, (S,E)-4-acetamido-2-cyclopentyl-N-(4-(methylsulfonyl)but-3-en-2-yl)-6-phenoxypyrimidine-5-carboxamide] | > 100 | 42 |  | 
C[C@@H](/C=C/S(C)(=O)=O)NC(=O)c1cnc(C2CC2)c2c1OC1(CCCC1)C2 [Example 259, (S,E)-4′-cyclopropyl-N-(4-(methylsulfonyl)but-3-en-2-yl)-3′H-spiro[cyclopentane-1,2′-furo[3,2-c]pyridine]-7′-carboxamide] | 0.12 |  |  | 7
CC(C)Oc1cc(C2CCCC2)ccc1C(=O)NC/C=C/S(C)(=O)=O [Example 281, (E)-4-cyclopentyl-2-isopropoxy-N-(3-(methylsulfonyl)allyl)benzamide] | 41.8 | 51 |  | 
